Values quoted from earlier work, collected in patent publication US20060079481A1, “Method of treating/preventing mucositis” (priority 2004, published 2006).

Tests used:
oral mucositis [1] = details: for effect in oral mucositis / risk of indirect mucotoxicity from bacteria and fungi: literature reports; for risk of indirect mucotoxicity from bacteria and fungi: prophylactic use
oral mucositis [2] = details: Dodd et al. 1996

| Molecule | effect in oral mucositis (oral mucositis [1]) | risk of indirect mucotoxicity from bacteria and fungi (oral mucositis [1]) | other results |
| --- | --- | --- | --- |
| Sucralfate | – | – | benefit in oral mucositis (oral mucositis [1]; patients receiving a cisplatin/fluorouracil regimen for various solid tumors (Pfeiffer et al. 1990)): modest benefit |
| O=c1[nH]cc(F)c(=O)[nH]1 [5-fluorouracil] | – | – | prevalence of chemotherapy-induced oral mucositis (oral mucositis [2]): 75% |
| Oc1ncnc2[nH]ncc12 [allopurinol] | failed to show effect | – | – |
| [H]/N=C(\N/C(=N/[H])NCCCCCCNC(=N)NC(=N)Nc1ccc(Cl)cc1)Nc1ccc(Cl)cc1 [chlorhexidine] | – | reduce the risk | – |
| CC(=O)CCCCn1c(=O)c2c(ncn2C)n(C)c1=O [pentoxifylline] | failed to show effect | – | – |
| CCCCC[C@H](O)/C=C/[C@H]1[C@H](O)CC(=O)[C@@H]1C/C=C\CCCC(=O)O [prostaglandin E2] | failed to show effect | – | – |
| C[C@@H]1[C@H](O)[C@@H](C)/C=C/C=C/CC/C=C/C=C/C=C/C=C/C(O[C@H]2O[C@H](C)[C@@H](O)[C@H](N)[C@@H]2O)CC2O[C@](O)(CC(O)C(O)CCC(O)CC(O)CC(O)CC(=O)O[C@H]1C)CC(O)C2C(=O)O (stereo partly drawn) [nystatin] | – | reduce the risk | – |
| Clc1ccccc1C(c1ccccc1)(c1ccccc1)n1ccnc1 [clotrimazole] | – | reduce the risk | – |
| filgrastim: a granulocyte colony-stimulating factor (protein, chains of the INN, looked up) MTPLGPASSLPQSFLLKCLEQVRKIQGDGAALQEKLCATYKLCHPEELVLLGHSLGIPWAPLSSCPSQALQLAGCLSQLHSGLFLYQGLLQALEGISPELGPTLDTLQLDVADFATTIWQQMEELGMAPALQPTQGAMPAFASAFQRRAGGVLVASHLQSFLEVSYRVLRHLAQP | failed to show effect | – | – |
